# From US20050222227A1, “Oxazole-amine compounds for the treatment of neurodegenerative disorders” (Pfizer Inc, priority 2004, published 2005)
# System: gamma-secretase
# Assay: gamma-secretase activity in a solubilized membrane preparation (cell-free assay)
# Assay type: biochemical
# Settings: according to McLendon et al., read-out: IC50 activity for inhibiting gamma-secretase
# Excerpt: The activity of compounds of the Formula I of the present invention in inhibiting gamma-secretase activity may be determined in a solubilized membrane preparation generally according to the description provided in McLendon et al. Cell-free assays for γ-secretase activity, The FASEB Journal (Vol. 14, December 2000, pp. 2383-2386).
smiles,measurement,value
"C/C=C(\C)c1cnc(NC(=O)[C@H](CCC)NC2CCc3cc(F)cc(F)c3C2)o1 (stereo partly drawn) [Example 1, (S)-2-(5,7-difluoro-1,2,3,4-tetrahydronaphthalen-3-ylamino)-N-(5-((E)-but-2-en-2-yl)oxazol-2-yl)pentanamide]",IC50,< 10 µM
